# Literature values in patent publication US20130004575A1, “CONTROLLED RELEASE FORMULATIONS USING INTELLIGENT POLYMERS” (VALEANT INTERNATIONAL (BARBADOS) SRL, priority 1997, published 2013).
# Settings: room temperature
structure (smiles),measurement,value
"CC1(C)O[C@@H]2[C@@H](CO[C@@]3(COS(N)(=O)=O)OC(C)(C)O[C@@H]23)O1 [topiramate, 2,3:4,5-bis-O-(1-methylethylidene)-β-D-fructopyranose sulfamate]",solubility of topiramate in water,about 9.8 mg/mL
